Results published in patent US10301305B2 (priority 2014, dated 2019).
Counter-ions that a name gives are not always drawn. Like-named read-outs stand apart in the source and are kept apart here.

How the values were obtained:
Format in all cases: biochemical
S. aureus DltA = S. aureus DltA (Staphylococcus aureus (strain NCTC 8325 / PS 47), UniProt Q2FZW6); experiment: in vitro DltA activity assay (luminescence), S. aureus DltA; settings: recombinant DltA, 30 min pre-incubation, 0.5 mM D-Alanine, 0.5-5 μM ATP; read-out: S. aureus DltA IC50
Procedure, shortened: (§1)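 His-tagged recombinant DltA (expressed in E. coli BL21, Ni-NTA purified) pre-incubated 30 min with inhibitor in 50 mM Hepes pH 8.0, MgCl2, KCl, Triton X-100, DTT. Reaction with 0.5 mM D-alanine, 0.5–5 µM ATP and pyrophosphatase for 1–2 h at RT, then residual ATP read by luciferase luminescence. IC50 from 6–10 concentrations, quench-corrected.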

S. Agalactiae DltA = S. Agalactiae DltA (Streptococcus agalactiae serotype III (strain NEM316), UniProt Q8VM67); experiment: in vitro DltA activity assay (luminescence), S. agalactiae DltA
Procedure, shortened: as §1

E. feacium DltA = E. feacium DltA (Enterococcus faecium, UniProt Q3XZT7); experiment: in vitro DltA activity assay (luminescence), E. faecium DltA; settings: recombinant DltA, 30 min pre-incubation, 0.5 mM D-Alanine, 0.5-5 μM ATP; read-out: E. feacium DltA IC50
Procedure, shortened: as §1

E. feacalis DltA = E. feacalis DltA (Enterococcus faecalis, UniProt Q830N0); experiment: in vitro DltA activity assay (luminescence), E. faecalis DltA; settings: recombinant DltA, 30 min pre-incubation, 0.5 mM D-Alanine, 0.5-5 μM ATP; read-out: E. feacalis DltA IC50
Procedure, shortened: as §1

[1] = recombinant DltA, 30 min pre-incubation, 0.5 mM D-Alanine, 0.5-5 μM ATP, read-out: S. Agalactiae DltA IC50

Sequence of E. feacium DltA (Q3XZT7 1-504): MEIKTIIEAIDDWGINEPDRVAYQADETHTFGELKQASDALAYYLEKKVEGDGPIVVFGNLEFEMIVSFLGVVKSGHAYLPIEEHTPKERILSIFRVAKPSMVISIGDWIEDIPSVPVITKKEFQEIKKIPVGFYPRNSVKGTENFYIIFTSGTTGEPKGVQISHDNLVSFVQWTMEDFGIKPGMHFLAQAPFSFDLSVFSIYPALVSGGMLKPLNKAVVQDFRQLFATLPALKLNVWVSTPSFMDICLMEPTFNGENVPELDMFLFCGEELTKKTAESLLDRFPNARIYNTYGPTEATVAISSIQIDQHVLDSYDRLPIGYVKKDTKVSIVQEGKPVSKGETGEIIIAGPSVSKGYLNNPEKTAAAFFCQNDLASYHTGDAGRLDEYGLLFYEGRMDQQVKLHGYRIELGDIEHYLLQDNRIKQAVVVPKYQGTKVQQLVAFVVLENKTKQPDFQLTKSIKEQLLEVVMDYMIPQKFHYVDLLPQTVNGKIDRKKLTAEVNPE
Sequence of E. feacalis DltA (Q830N0 1-506): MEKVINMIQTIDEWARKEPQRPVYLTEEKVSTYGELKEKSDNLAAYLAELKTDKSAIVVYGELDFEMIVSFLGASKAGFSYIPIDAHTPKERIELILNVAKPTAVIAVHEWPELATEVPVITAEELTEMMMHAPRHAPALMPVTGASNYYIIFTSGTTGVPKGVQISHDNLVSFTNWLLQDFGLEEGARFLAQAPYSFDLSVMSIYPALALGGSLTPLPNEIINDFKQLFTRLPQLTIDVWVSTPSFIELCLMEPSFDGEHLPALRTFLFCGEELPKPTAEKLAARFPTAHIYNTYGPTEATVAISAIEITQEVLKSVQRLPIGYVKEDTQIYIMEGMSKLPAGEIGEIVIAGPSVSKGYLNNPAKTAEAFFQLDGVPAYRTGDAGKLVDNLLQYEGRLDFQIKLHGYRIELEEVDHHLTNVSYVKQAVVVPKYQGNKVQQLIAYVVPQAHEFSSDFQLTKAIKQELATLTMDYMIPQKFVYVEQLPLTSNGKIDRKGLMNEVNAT

`CN1CCC[C@@H]1COc1cc(-c2ccc3c(c2)ncn3C2CCCOC2)c2nc[nH]c2c1C(N)=O` (stereo partly drawn) [Example 215, 5-[[(2R)-1-methylpyrrolidin-2-yl]methoxy]-7-(1-tetrahydropyran-3-ylbenzimidazol-5-yl)-3H-benzimidazole-4-carboxamide methanesulfonic acid salt] gave an IC50 (S. aureus DltA) of 0.8 nM, an IC50 (S. Agalactiae DltA) of 86 nM and an IC50 (E. feacium DltA) of 5.7 nM. For the same molecule, the IC50 (E. feacalis DltA) was 1.4 nM.
For `CN(C)C1CCCN(c2cc(-c3cnc4c(c3)CCCO4)c3nc[nH]c3c2C(N)=O)C1` (stereo not drawn) [Example 222, 7-(3,4-dihydro-2H-pyrano[2,3-b]pyridin-6-yl)-5-[3-(dimethylamino)-1-piperidyl]-3H-benzimidazole-4-carboxamide], the IC50 (S. aureus DltA) was 47 nM, the IC50 (S. Agalactiae DltA; [1]) was 180 nM and the IC50 (E. feacium DltA) was 67 nM. The IC50 (E. feacalis DltA) was 9 nM.
For `CCn1cnc2cc(-c3cc(N(C)CCN(C)C)c(C(N)=O)c4[nH]cnc34)cc(F)c21` [Example 227, 5-[2-(dimethylamino)ethyl-methyl-amino]-7-(1-ethyl-7-fluoro-benzimidazol-5-yl)-3H-benzimidazole-4-carboxamide], the IC50 (S. aureus DltA) was 32 nM, the IC50 (S. Agalactiae DltA; [1]) was 1300 nM and the IC50 (E. feacium DltA) was 83 nM. For the same molecule, the IC50 (E. feacalis DltA) was 30 nM.
Molecule `CN(C)CCN(C)c1cc(-c2cncc(N3CCCC3)c2)c2nc[nH]c2c1C(N)=O` [Example 230, 5-[2-(dimethylamino)ethyl-methyl-amino]-7-(5-pyrrolidin-1-yl-3-pyridyl)-3H-benzimidazole-4-carboxamide] has an IC50 (S. aureus DltA) of 64 nM, an IC50 (S. Agalactiae DltA; [1]) of 2100 nM and an IC50 (E. feacium DltA) of 280 nM. The IC50 (E. feacalis DltA) was 30 nM.
For `CN1CCCC1COc1cc(-c2cnc3c(c2)CCCO3)c2nc[nH]c2c1C(N)=O` (stereo not drawn) [Example 233, 7-(3,4-dihydro-2H-pyrano[2,3-b]pyridin-6-yl)-5-[(1-methylpyrrolidin-2-yl)methoxy]-3H-benzimidazole-4-carboxamide methanesulfonic acid salt], the IC50 (S. aureus DltA) was 6.5 nM, the IC50 (S. Agalactiae DltA; [1]) was 130 nM and the IC50 (E. feacium DltA) was 24 nM. For the same molecule, the IC50 (E. feacalis DltA) was 4.7 nM.
`CN1CCC[C@@H]1COc1cc(-c2ccc3c(c2)ncn3C2CCCCC2)c2nc[nH]c2c1C(N)=O` [Example 236, 7-(1-cyclohexylbenzimidazol-5-yl)-5-[[(2R)-1-methylpyrrolidin-2-yl]methoxy]-3H-benzimidazole-4-carboxamide methanesulfonic acid salt] gave an IC50 (S. aureus DltA) of 0.4 nM, an IC50 (S. Agalactiae DltA; [1]) of 91 nM and an IC50 (E. feacium DltA) of 3.6 nM. It also gave an IC50 (E. feacalis DltA) of 1.4 nM.
